From patent US9801889B2, “Bicyclic heterocycles as FGFR4 inhibitors” (Incyte Corporation, priority 2015, dated 2017)

Key:
Details in all cases: IC50 ratio showing FGFR4 selectivity
FGFR1 = FGFR1 (Homo sapiens (Human), UniProt P11362); test: FGFR Enzymatic Assay (FRET peptide phosphorylation), FGFR1
Description: (§1) The enzymes were purchased from Millipore or Invitrogen.
(§2) GraphPad prism3 was used to analyze the data. The IC50 values were derived by fitting the data to the equation for a sigmoidal dose-response with a variable slope. Y=Bottom+(Top-Bottom)/(1+10^((LogIC50-X)*HillSlope)) where X is the logarithm of concentration and Y is the response.

FGFR2 = FGFR2 (Homo sapiens (Human), UniProt P21802); test: FGFR Enzymatic Assay (FRET peptide phosphorylation), FGFR2
Description: as §1, §2

FGFR3 = FGFR3 (Homo sapiens (Human), UniProt P22607); test: FGFR Enzymatic Assay (FRET peptide phosphorylation), FGFR3
Description: as §1, §2

[1] = pre-incubated for 5 to 10 minutes

FGFR1, sequence (P11362 22-822): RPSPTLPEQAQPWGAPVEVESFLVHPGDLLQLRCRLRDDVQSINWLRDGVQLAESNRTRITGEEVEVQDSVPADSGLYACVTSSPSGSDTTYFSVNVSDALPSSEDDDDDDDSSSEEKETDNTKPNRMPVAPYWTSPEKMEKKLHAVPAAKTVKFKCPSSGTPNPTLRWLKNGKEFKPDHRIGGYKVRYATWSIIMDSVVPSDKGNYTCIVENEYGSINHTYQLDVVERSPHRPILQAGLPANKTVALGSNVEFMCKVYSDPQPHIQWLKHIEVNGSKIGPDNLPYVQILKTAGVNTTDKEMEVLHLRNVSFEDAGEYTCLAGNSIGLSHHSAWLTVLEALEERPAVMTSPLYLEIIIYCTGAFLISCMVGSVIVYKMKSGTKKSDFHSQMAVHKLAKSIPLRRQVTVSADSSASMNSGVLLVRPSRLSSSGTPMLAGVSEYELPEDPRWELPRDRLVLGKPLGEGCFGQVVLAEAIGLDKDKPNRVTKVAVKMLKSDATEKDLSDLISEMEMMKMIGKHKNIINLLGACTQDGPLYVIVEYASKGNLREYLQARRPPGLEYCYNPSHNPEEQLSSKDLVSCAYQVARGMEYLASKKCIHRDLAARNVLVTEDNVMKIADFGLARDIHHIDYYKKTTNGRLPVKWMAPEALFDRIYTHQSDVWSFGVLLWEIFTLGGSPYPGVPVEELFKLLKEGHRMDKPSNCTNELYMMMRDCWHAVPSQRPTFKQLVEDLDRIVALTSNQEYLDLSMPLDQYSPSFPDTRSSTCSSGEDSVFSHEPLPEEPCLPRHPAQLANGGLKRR
FGFR2, sequence (P21802 22-821): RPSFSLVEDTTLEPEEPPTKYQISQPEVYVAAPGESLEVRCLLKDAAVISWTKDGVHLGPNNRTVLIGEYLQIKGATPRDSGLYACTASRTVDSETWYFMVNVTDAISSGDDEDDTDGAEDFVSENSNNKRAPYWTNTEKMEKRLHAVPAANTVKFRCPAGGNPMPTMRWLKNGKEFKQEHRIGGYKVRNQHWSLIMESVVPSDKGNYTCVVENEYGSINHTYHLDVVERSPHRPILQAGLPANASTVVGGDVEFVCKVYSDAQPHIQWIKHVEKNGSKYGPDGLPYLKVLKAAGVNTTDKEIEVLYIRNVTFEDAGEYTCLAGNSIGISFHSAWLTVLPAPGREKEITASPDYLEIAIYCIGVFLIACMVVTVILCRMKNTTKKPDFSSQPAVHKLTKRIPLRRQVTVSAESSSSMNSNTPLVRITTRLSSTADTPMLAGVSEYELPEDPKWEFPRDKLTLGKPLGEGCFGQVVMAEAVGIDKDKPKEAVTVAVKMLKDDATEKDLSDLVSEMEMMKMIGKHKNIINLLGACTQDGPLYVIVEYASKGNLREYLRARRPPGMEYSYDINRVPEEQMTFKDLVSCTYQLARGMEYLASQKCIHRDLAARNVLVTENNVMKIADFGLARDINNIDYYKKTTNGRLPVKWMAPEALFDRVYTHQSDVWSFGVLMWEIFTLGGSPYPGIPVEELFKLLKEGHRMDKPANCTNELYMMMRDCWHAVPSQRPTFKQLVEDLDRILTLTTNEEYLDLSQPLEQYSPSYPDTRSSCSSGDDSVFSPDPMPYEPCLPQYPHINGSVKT
FGFR3, sequence (P22607 23-806): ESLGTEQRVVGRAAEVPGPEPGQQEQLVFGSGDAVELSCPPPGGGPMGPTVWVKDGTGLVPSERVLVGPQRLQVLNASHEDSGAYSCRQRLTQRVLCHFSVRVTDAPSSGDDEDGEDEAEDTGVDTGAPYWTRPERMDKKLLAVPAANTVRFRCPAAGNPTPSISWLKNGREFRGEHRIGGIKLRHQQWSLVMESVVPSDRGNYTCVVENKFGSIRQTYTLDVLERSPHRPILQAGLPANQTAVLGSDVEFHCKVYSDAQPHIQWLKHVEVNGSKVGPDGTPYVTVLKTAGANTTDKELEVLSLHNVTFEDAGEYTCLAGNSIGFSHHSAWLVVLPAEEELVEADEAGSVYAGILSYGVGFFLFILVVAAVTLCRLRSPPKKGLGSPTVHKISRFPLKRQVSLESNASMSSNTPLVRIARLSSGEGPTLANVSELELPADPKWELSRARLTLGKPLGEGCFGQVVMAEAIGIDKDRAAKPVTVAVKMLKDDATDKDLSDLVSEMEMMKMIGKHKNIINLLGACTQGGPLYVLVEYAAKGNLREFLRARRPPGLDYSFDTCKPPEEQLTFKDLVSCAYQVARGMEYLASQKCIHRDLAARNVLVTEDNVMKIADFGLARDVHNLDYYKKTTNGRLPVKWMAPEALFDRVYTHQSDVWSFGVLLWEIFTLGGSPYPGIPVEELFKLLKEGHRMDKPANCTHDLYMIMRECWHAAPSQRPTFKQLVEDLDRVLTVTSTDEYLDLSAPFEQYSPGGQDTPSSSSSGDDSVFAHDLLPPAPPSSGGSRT

| Compound | FGFR1/FGFR4 (FGFR1; pre-incubated for 4 hours) | FGFR2/FGFR4 (FGFR2; pre-incubated for 4 hours) | FGFR3/FGFR4 (FGFR3; pre-incubated for 4 hours) | FGFR1/FGFR4 (FGFR1; [1]) | FGFR2/FGFR4 (FGFR2; [1]) | FGFR3/FGFR4 (FGFR3; [1]) |
| --- | --- | --- | --- | --- | --- | --- |
| C=CC(=O)Nc1cnn(Cc2cnn(C)c2)c1-c1cc2c(cn1)CN(c1c(F)c(OC)cc(OC)c1F)C(=O)C21CC1 [Example 27, N-(5-(2′-(2,6-difluoro-3,5-dimethoxyphenyl)-3′-oxo-2′,3′-dihydro-1′H-spiro[cyclopropane-1,4′-[2,7]naphthyridine]-6′-yl)-1-((1-methyl-1H-pyrazol-4-yl)methyl)-1H-pyrazol-4-yl)acrylamide] | >100 | >100 | >100 | – | – | – |
| C=CC(=O)Nc1ccc(C)c(-c2ncc3c(n2)C2(CC2)C(=O)N(c2c(F)c(OC)cc(OC)c2F)C3)c1 [Example 37, N-(3-(6′-(2,6-difluoro-3,5-dimethoxyphenyl)-7′-oxo-6′,7′-dihydro-5′H-spiro[cyclopropane-1,8′-pyrido[4,3-d]pyrimidine]-2′-yl)-4-methylphenyl)acrylamide] | >100 | >100 | >100 | – | – | – |
| C=CC(=O)Nc1cnn(Cc2ncn(C)n2)c1-c1cc2c(cn1)CN(c1c(F)c(OC)cc(OC)c1F)C(=O)C21CC1 [Example 23, N-(5-(2′-(2,6-difluoro-3,5-dimethoxyphenyl)-3′-oxo-2′,3′-dihydro-1′H-spiro[cyclopropane-1,4′-[2,7]naphthyridine]-6′-yl)-1-((1-methyl-1H-1,2,4-triazol-3-yl)methyl)-1H-pyrazol-4-yl)acrylamide] | >100 | >100 | >100 | – | – | – |
| C=CC(=O)Nc1cnn(CCN2CCOCC2)c1-c1cc2c(cn1)CN(c1c(F)c(OC)cc(OC)c1F)C(=O)C21CC1 [Example 19, N-(5-(2′-(2,6-difluoro-3,5-dimethoxyphenyl)-3′-oxo-2′,3′-dihydro-1′H-spiro[cyclopropane-1,4′-[2,7]naphthyridine]-6′-yl)-1-(2-morpholinoethyl)-1H-pyrazol-4-yl)acrylamide] | >100 | >100 | >100 | – | – | – |
| C=CC(=O)Nc1cnn(Cc2cccnc2)c1-c1cc2c(cn1)CN(c1c(F)c(OC)cc(OC)c1F)C(=O)C21CC1 [Example 22, N-(5-(2′-(2,6-difluoro-3,5-dimethoxyphenyl)-3′-oxo-2′,3′-dihydro-1′H-spiro[cyclopropane-1,4′-[2,7]naphthyridine]-6′-yl)-1-(pyridin-3-ylmethyl)-1H-pyrazol-4-yl)acrylamide] | >100 | >100 | >100 | – | – | – |
| C=CC(=O)Nc1cnn(C2CCOCC2)c1-c1cc2c(cn1)CN(c1c(F)c(OC)cc(OC)c1F)C(=O)C21CC1 [Example 18, N-(5-(2′-(2,6-difluoro-3,5-dimethoxyphenyl)-3′-oxo-2′,3′-dihydro-1′H-spiro[cyclopropane-1,4′-[2,7]naphthyridine]-6′-yl)-1-(tetrahydro-2H-pyran-4-yl)-1H-pyrazol-4-yl)acrylamide] | >100 | >50 | >100 | – | – | – |
| C=CC(=O)Nc1cnn(Cc2ccncc2)c1-c1cc2c(cn1)CN(c1c(F)c(OC)cc(OC)c1F)C(=O)C21CC1 [Example 21, N-(5-(2′-(2,6-difluoro-3,5-dimethoxyphenyl)-3′-oxo-2′,3′-dihydro-1′H-spiro[cyclopropane-1,4′-[2,7]naphthyridine]-6′-yl)-1-(pyridin-4-ylmethyl)-1H-pyrazol-4-yl)acrylamide] | >100 | >50 | >100 | – | – | – |
| C=CC(=O)Nc1cnn(C[C@H]2CCCO2)c1-c1cc2c(cn1)CN(c1c(F)c(OC)cc(OC)c1F)C(=O)C21CC1 [Example 30] | >100 | >100 | >100 | – | – | – |
| C=CC(=O)Nc1cn(CC2CCOCC2)nc1-c1cc2c(cn1)CN(c1c(F)c(OC)cc(OC)c1F)C(=O)C21CC1 [Example 35, N-(3-(2′-(2,6-difluoro-3,5-dimethoxyphenyl)-3′-oxo-2′,3′-dihydro-1′H-spiro[cyclopropane-1,4′-[2,7]naphthyridine]-6′-yl)-1-((tetrahydro-2H-pyran-4-yl)methyl)-1H-pyrazol-4-yl)acrylamide] | >100 | >100 | >100 | – | – | – |
| C=CC(=O)Nc1cnn(CCOC)c1-c1cc2c(cn1)CN(c1c(F)c(OC)cc(OC)c1F)C(=O)C21CC1 [Example 15, N-(5-(2′-(2,6-difluoro-3,5-dimethoxyphenyl)-3′-oxo-2′,3′-dihydro-1′H-spiro[cyclopropane-1,4′-[2,7]naphthyridine]-6′-yl)-1-(2-methoxyethyl)-1H-pyrazol-4-yl)acrylamide] | >100 | >100 | >100 | – | – | – |
| C=CC(=O)Nc1cnn(C[C@@H]2CCOC2)c1-c1cc2c(cn1)CN(c1c(F)c(OC)cc(OC)c1F)C(=O)C21CC1 [Example 28, (S)-N-(5-(2′-(2,6-difluoro-3,5-dimethoxyphenyl)-3′-oxo-2′,3′-dihydro-1′H-spiro[cyclopropane-1,4′-[2,7]naphthyridine]-6′-yl)-1-((tetrahydrofuran-3-yl)methyl)-1H-pyrazol-4-yl)acrylamide] | >100 | >100 | >100 | – | – | – |
| C=CC(=O)Nc1cc(CN2CCOCC2)cc(-c2cc3c(cn2)CN(c2c(F)c(OC)cc(OC)c2F)C(=O)C32CC2)c1 [Example 11, N-[3-[2′-(2,6-difluoro-3,5-dimethoxyphenyl)-3′-oxo-2′,3′-dihydro-1′H-spiro[cyclopropane-1,4′-[2,7]naphthyridin]-6′-yl]-5-(morpholin-4-ylmethyl)phenyl]acrylamide] | >100 | >100 | >100 | >100 | >100 | >100 |
| C=CC(=O)Nc1cn(CCN2CCOCC2)nc1-c1cc2c(cn1)CN(c1c(F)c(OC)cc(OC)c1F)C(=O)C21CC1 [Example 34, N-(3-(2′-(2,6-difluoro-3,5-dimethoxyphenyl)-3′-oxo-2′,3′-dihydro-1′H-spiro[cyclopropane-1,4′-[2,7]naphthyridine]-6′-yl)-1-(2-morpholinoethyl)-1H-pyrazol-4-yl)acrylamide] | >100 | >100 | >100 | – | – | – |
| C=CC(=O)Nc1ccc(C)c(-c2cc3c(cn2)CN(c2c(F)c(OC)cc(OC)c2F)C(=O)C32CC2)c1 [Example 2, N-(3-(2′-(2,6-difluoro-3,5-dimethoxyphenyl)-3′-oxo-2′,3′-dihydro-1′H-spiro[cyclopropane-1,4′-[2,7]naphthyridine]-6′-yl)-4-methylphenyl)acrylamide] | >100 | >100 | >100 | >100 | >100 | >100 |
| C=CC(=O)Nc1cnn(CC2CCOCC2)c1-c1cc2c(cn1)CN(c1c(F)c(OC)cc(OC)c1F)C(=O)C21CC1 [Example 24, N-(5-(2′-(2,6-difluoro-3,5-dimethoxyphenyl)-3′-oxo-2′,3′-dihydro-1′H-spiro[cyclopropane-1,4′-[2,7]naphthyridine]-6′-yl)-1-((tetrahydro-2H-pyran-4-yl)methyl)-1H-pyrazol-4-yl)acrylamide] | >100 | >100 | >100 | – | – | – |
| C=CC(=O)Nc1cc(-c2cc3c(cn2)CN(c2c(F)c(OC)cc(OC)c2F)C(=O)C32CC2)c(C)cc1F [Example 6, N-(5-(2′-(2,6-difluoro-3,5-dimethoxyphenyl)-3′-oxo-2′,3′-dihydro-1′H-spiro[cyclopropane-1,4′-[2,7]naphthyridine]-6′-yl)-2-fluoro-4-methylphenyl)acrylamide] | >100 | >100 | >100 | >100 | >100 | >100 |
| C=CC(=O)Nc1ccc(C#N)c(-c2cc3c(cn2)CN(c2c(F)c(OC)cc(OC)c2F)C(=O)C32CC2)c1 [Example 5, N-(4-cyano-3-(2′-(2,6-difluoro-3,5-dimethoxyphenyl)-3′-oxo-2′,3′-dihydro-1′H-spiro[cyclopropane-1,4′-[2,7]naphthyridine]-6′-yl)phenyl)acrylamide] | >100 | >100 | >100 | >100 | >100 | >100 |
| C=CC(=O)N1CCCC(c2cc3c(cn2)CN(c2c(F)c(OC)cc(OC)c2F)C(=O)C32CC2)C1 (stereo not drawn) [Example 8, 6′-(1-acryloylpiperidin-3-yl)-2′-(2,6-difluoro-3,5-dimethoxyphenyl)-1′H-spiro[cyclopropane-1,4′-[2,7]naphthyridin]-3′(2′H)-one] | >10 | >2 | >2 | >5 | >1 | >1 |
| C=CC(=O)Nc1cnn(Cc2ccon2)c1-c1cc2c(cn1)CN(c1c(F)c(OC)cc(OC)c1F)C(=O)C21CC1 [Example 25, N-(5-(2′-(2,6-difluoro-3,5-dimethoxyphenyl)-3′-oxo-2′,3′-dihydro-1′H-spiro[cyclopropane-1,4′-[2,7]naphthyridine]-6′-yl)-1-(isoxazol-3-ylmethyl)-1H-pyrazol-4-yl)acrylamide] | >100 | >100 | >100 | – | – | – |
| C=CC(=O)Nc1cnc(C)c(-c2cc3c(cn2)CN(c2c(F)c(OC)cc(OC)c2F)C(=O)C32CC2)c1 [Example 7, N-(5-(2′-(2,6-difluoro-3,5-dimethoxyphenyl)-3′-oxo-2′,3′-dihydro-1′H-spiro[cyclopropane-1,4′-[2,7]naphthyridine]-6′-yl)-6-methylpyridin-3-yl)acrylamide] | >100 | >100 | >100 | >100 | >100 | >100 |
